Assay: Vesicle rupture assay
Assay type: biochemical
Conditions: POPC LUVs, relative to Triton X-100 (=100%)

For EWGQGLTSFWHL [compound 2], the “rupturing of POPC vesicles” value was 50–75%.

Source: publication PMC4712357 (Molecular informatics, 2015)
